Assay results published in patent US20240279687A1, “PEPTIDE NUCLEIC ACIDS FOR SPATIOTEMPORAL CONTROL OF CRISPR-CAS BINDING” (Yale University, priority 2021, published 2024).
{Lys} = L-lysine residue attached to the PNA terminus

Assays:
[1] = test system: 20mer RNA oligonucleotide (spacer sequence designed to target the BFP gene); assay: UV spectroscopy thermal melting analysis of duplexes; format: binding; details: 1 μM each strand, 10 mM sodium phosphate buffer pH 7.4
Experimental: All samples were prepared by mixing a stoichiometric amount of each strand (1 μM) in 10 mM sodium phosphate buffer at pH 7.4 (Table 8). The samples were pre-annealed at 95° C. for 5 mins and gradually cooled to room temperature prior to the melting experiment. UV melting experiments were performed using a Shimadzu UV-3600 Plus UV-Vis-NIR spectrophotometer equipped with a thermoelectrically controlled multicell holder. UV melting spectra were recorded after every 1° C. temperature change by monitoring the absorbance at 260 nm from 20° C. to 110° C. to 20° C., with a heating/cooling ramp rate of 1.0° C./min. The heating and cooling curves were overlapped to confirm reversible denaturation. All spectra were plotted on Origin 2020 and smoothed using a 20-point adjacent averaging algorithm. The first derivative plots of the melting curves were generated to determine the melting temperature for each duplex.

[2] = test system: Cas9 RNP using a sgRNA targeted to the BFP gene; assay: Cas9 RNP editing of BFP reporter gene in K562-BFP cells (BFP fluorescent drop out, flow cytometry); format: cell-based, human; details: for inhibitory effect on Cas9-mediated BFP gene disruption and indel formation: 0-250 pmol nucleofected 2 hours prior to Cas9 RNP
Experimental: (§1) For Cas9 RNP assembly, 50 pmol of sgRNA (IDT, Alt-R CRISPR-Cas9 sgRNA) and 45 pmol of SpCas9 (CPO2, PNA BIO) were incubated at room temperature for 10 minutes in a 5 μL reaction in 1×3.1 Buffer (B7203S, NEB). For nucleofections, 1×10^6 cells, 5 μL Cas9 RNP, and 1 μL of Alt-R Cas9 electroporation enhancer (IDT) were resuspended in 100 μL of Lonza cell line solution (V4XC-2024/V4XC-1024, Lonza) and nucleofected using a Lonza 4D-Nucleofector X unit. Cas9 RNP treated cells were seeded in 2 mL of complete media and incubated for 96 hours prior to harvesting for analysis.
(§2) For PNA pre-treatments, 1×10^6 cells and 1 μL of PNA diluted to desired concentration in water were similarly nucleofected using Lonza cell line kits and 4D-Nucleofector. PNA nucleofected cells were resuspended in 1.25 mL of complete media in 1.5 mL tubes and incubated at 37° C. for 2 hours before Cas9 RNP nucleofection as described above. After Cas9 RNP nucleofection cells were seeded in 2 mL of complete media and incubated for 96 hours prior to harvesting and analysis.
K562 cells were spun down and resuspended in fresh complete media at 300,000 cells/mL 48 hours prior to analysis. Samples for flow cytometry were fixed in complete media with 1% formaldehyde for 15 minutes before spinning down, resuspending in 300 μL PBS, and filtering through a cell strainer capped tube. Samples were analyzed for BFP and GFP fluorescence using a Cytoflex LX instrument (Beckman Coulter) using PacificBlue and FITC lasers, respectively, and quantification and gating was done using FloJo v10 software. Background fluorescent drop out was determined by measurement of mock nucleofected lines in quadruplicate and subtracted from experimental values to determine reported editing frequency.
10^6 stable BFP-expressing K562 cells were nucleofected (Lonza 4D Nucleofector) with a specified dose of PNA or ssDNA oligo (0-250 pmol). Two hours later, all conditions were nucleofected with 45 pmol of purified Cas9 RNP using a sgRNA targeted to the BFP gene. 72 hours later, cells with BFP fluorescent drop out (via Cas9 indel formation) were quantified by flow cytometry (Beckman Coulter—Cytoflex instrument).
In time-course experiments in FIG. 3D, K562 samples were nucleofected with 5 μL RNP reactions with the addition of 100 pmol of ssODN donor in 1 μL of water. RNP nucleofected samples were incubated at 37° C. in complete media before being spun down and nucleofected with 250 pmol of PNA at specified time points. After PNA delivery cells were seeded in 2 mL of complete media and incubated for 96 hours prior to harvesting and analysis.
10^6 stable BFP-expressing K562 cells were nucleofected (Lonza 4D Nucleofector) with specified dose (0-250 pmol, or 250 pmol if unspecified) of specified PNA with sequences homologous to (antispacer) or identical to (cis-spacer) the BFP gRNA spacer sequence. Two hours later, all conditions were nucleofected with 45 pmol of purified Cas9 RNP using a sgRNA targeted to the BFP gene. 72 hours later, cells with BFP fluorescent drop out (via Cas9 indel formation) were quantified by flow cytometry (Beckman Coulter—Cytoflex instrument).
10^6 stable BFP-expressing K562 cells were nucleofected (Lonza 4D Nucleofector) with 45 pmol of purified Cas9 RNP using a sgRNA targeted to the BFP gene. At each specified time point 250 pmol of BFP Anti-protospacer PNA were introduced via nucleofection. For “Cas9 only” condition there was no second PNA nucleofection and for “0 hrs” 250 pmol of PNA was co-nucleofected with Cas9 in a single reaction. After each nucleofection samples were left in fresh media for the duration of the experiment to acquire edits. 72 hours after the “24 hrs” nucleofection, cells for all conditions with BFP fluorescent drop out (via Cas9 indel formation) were quantified by flow cytometry (Beckman Coulter—Cytoflex instrument).

[3] = test system: Cas9 RNP using a sgRNA targeted to the HBB gene (R-01); assay: Cas9 RNP editing at HBB in K562 cells (amplicon sequencing); format: cell-based, human
Experimental: as §1, §2
10^6 stable BFP-expressing K562 cells were nucleofected (Lonza 4D Nucleofector) with a specified dose of BFP cis-protospacer PNA or HBB PNA (0-250 pmol). Two hours later, all conditions were nucleofected with 45 pmol of purified Cas9 RNP using a sgRNA targeted to the BFP gene or targeted to the HBB gene (R-01). 72 hours later, cells with BFP fluorescent drop out (via Cas9 indel formation) were quantified by flow cytometry (Beckman Coulter Cytoflex instrument) for the BFP target (FIG. 3A). For the HBB target (FIG. 3B-3C), 72 hours post-treatment gDNA was extracted (Promega ReliaPrep) and the region of interest was PCR amplified (NEB Phusion). Indel frequency was measured by T7 endonuclease assay (NEB—EnGen Mutation Detection Kit).
(§3) Genomic DNA was purified from 0.5×10^6 cells using Promega ReliaPrep gDNA Tissue Miniprep System (A2052) and eluted in 50 μL of water. Library prep used 100 ng of gDNA input with Ampliseq for Illumina Library Plus kit (20019101, Illumina) and used a custom primer pool designed to amplify a designed panel of genomic targets of interest (Table 9). Libraries were indexed, pooled, and loaded onto a Mid-output (300-cycles, Illumina, FC-420-1004) cartridge for paired-end sequencing on an Illumina Miniseq instrument. FASTQ reads were subjected to quality analysis (Basespace FASTQC) and analyzed for indel frequency using Cas-Analyzer assessment tool (parameters: Comparison range (R)—both ends of full amplicon sequence, Minimum frequency (n)=1). gRNAs used in this study are listed in Table 8, amplicon genomic coordinates listed in Table 9.

[4] = test system: Cas9 RNP (FANCF, EMX1, ZSCAN2, CCR5, VEGFA gRNAs); assay: On-target specificity of Cas9 RNP (ratio of on-target to off-target editing rates); format: cell-based, human
Experimental: as §2, §3
In the case of EMX1 ON and OFF target amplicons, both regions were amplified from 200 ng of purified gDNA by Phusion High-Fidelity Polymerase (NEB, M0530S) and pooled and purified using QIAGEN PCR purification kit (28104, Qiagen). Library prep used 200 ng of purified amplicon input with Illumina DNA Prep kit (20025519, Illumina). EMX1 libraries were similarly indexed, pooled, sequenced, and analysed as above.
For pre-annealed PAM-distal PNA experiments, 50 pmol of sgRNA and 50 pmol of PAM-distal 10mer PNAs were incubated in a thermocycler at 37° C. for 30 minutes in a 5 μL reaction in 1×3.1 Buffer (B7203S, NEB) to allow annealing. PNA annealing to sgRNAs was confirmed by gel shift on 5% polyacrylamide gel. 45 pmol of SpCas9 (CP02, PNA BIO) was then added at room temperature and incubated for 10 minutes to allow RNP formation. Resulting reaction was delivered to 1×10^6 K562 cells by a single nucleofection and treated as described above.

dCas9-VPR / POU5F1 sgRNA = assay: CRISPRa (dCas9-VPR) POU5F1 expression in stable K562 cells, RT-qPCR; format: cell-based, human; details: 250 pmol PNA
Experimental: Stable K562-hEF1α-dCas9-VPR line was established by lentiviral transduction using Edit-R purified lentiviral particles (Horizon Discovery) and blasticidin selection (5 μg/mL, A1113903, Gibco). dCas9-VPR integration was confirmed by western blot with CRISPR-Cas9 antibody (7A9-3A3, Novus). dCas9-VPR expressing line was further transduced with Edit-R CRISPRa human POU5F1 sgRNA purified lentiviral particles (VSGH11902, Horizon Discovery, Table 4) and puromycin selection (2 μg/mL, Gibco).
4×10^6 stable dCas9-VRP/POU5F1 sgRNA expressing K562 cells (generated using lentivirus from Horizon Discovery), or K562 cells, were nucleofected with 250 pmol of specified PNA (non-targeting BFP or POU5F1) using a Lonza 4D nucleofector. At each specified time point 500 μL of cells were removed from each condition flask, spun down, and frozen. RNA was extracted from each pellet using QIAGEN Rneasy Mini Kits and cDNA was generated using Applied Biosystems High Capacity cDNA reverse transcription kit. rtPCR reactions were conducted for each sample using a StepOnePLUS Real-Time PCR System (Applied Biosystems) using Taqman Fast Advanced Master Mix and TaqMan gene specific probes for POU5F1 and GAPDH. Expression relative to the untreated parent K562 line was recorded as fold-change and calculated using the ΔΔCT method.
For RNA extractions 0.5×10^6 K562 cells were spun down, washed once with PBS, homogenized using QIAshredder columns (QIAGEN 79656) and processed using QIAGEN RNeasy mini kits (74106) before eluting in 50 μL of water. Resulting RNA was used as input for high-capacity cDNA Reverse Transcription Kit (Applied Biosystems) and resulting reaction was diluted 1:5 with water. RT-qPCR reactions were conducted in triplicate for each sample using a StepOnePLUS Real-Time PCR System (Applied Biosystems) and Taqman Fast Advanced Master Mix (Applied Biosystems) with TaqMan gene specific probes (Table 8). Expression relative to the untreated K562 parent line was recorded as fold-change and calculated from averaged CT values using the ΔΔCT method.

[5] = 150 pmol dose, three replicates

“ATGGCGTGCAGTGCTTCAGC (KKK-ATGGCGTGCAGTGCTTCAGC-KKK; as printed in the source, key not given here) [Anti-protospacer ssDNA oligo, reference compound]” was tested, and the “Tm of duplex with RNA spacer sequence” value [1] was 56 °C, the “inhibitory effect on Cas9-mediated BFP gene disruption and indel formation” value (“inhibitory effect” below) [2] was “entirely ineffective” and the “inhibitory effect” value ([2]; listed as antispacer DNA) was “no effect”.
For “AUGGCGUGCAGUGCUUCAGC (chemistry not given here) [Antispacer RNA (melting study), complementary RNA oligomer (length 20nt), IDT]”, the “Tm of duplex with RNA spacer sequence” value [1] was 69 °C.
“CCAACTGCAT (all peptide nucleic acid (PNA); further chemistry not fully specified) [HBB R-01 PAMprox 10 mer PNA, 1 Lysine (K) on either end]” was tested, and the HBB editing ([3]; 50 pmol PNA (45.2% without PNA)) was 0.102%, the “mean fold reduction of HBB target editing” value [3, 5] was 2,372 fold and the “total indels detected across 28,104 analyzed amplicons” value [3, 5] was 6. The “fold reduction of HBB target editing” value ([3]; 1:1 PNA:sgRNA ratio (50 pmol)) was 443 fold.
For “GCTCGGACTC (all peptide nucleic acid (PNA); further chemistry not fully specified) [EMX1 PAMdist 10 mer PNA]”, the “specificity ratio versus Cas9 only” value ([4]; K562, HEK293, and U2OS cell lines, PNA pre-treatment prior to Cas9 RNP nucleofection) was “significantly increased specificity ratios” and the “specificity versus pre-treatment approaches” value ([4]; PNA pre-annealed to sgRNA prior to Cas9 RNP formation, delivered as a single complex, K562) was “further improved specificity”.
In the case of “K-ATGGCGTGCA-K (all peptide nucleic acid (PNA), 5' {Lys}, 3' {Lys}) [BFP PAM-proximal PNA]”, the “reduction of BFP editing” value ([2]; 50 pmol dose) is reported as 96.0%, the “reduction of BFP editing” value ([2]; 250 pmol dose) is reported as 99.7% and the “fold reduction in editing” value ([2]; 1:1 PNA:sgRNA molar ratio (50 pmol)) is reported as 24.5 fold. The “fold reduction in editing” value ([2]; 5:1 PNA:sgRNA ratio (250 pmol)) was 342.6 fold.
For “K-GTGCAGTGCT-K (all peptide nucleic acid (PNA), 5' {Lys}, 3' {Lys}) [BFP PAM-middle PNA]”, the “fold reduction in editing” value ([2]; 5:1 PNA:sgRNA ratio (250 pmol)) was 32.4 fold.
For “K-GTGCTTCAGC-K (all peptide nucleic acid (PNA), 5' {Lys}, 3' {Lys}) [BFP PAM-distal PNA]”, the “inhibitory effect” value [2] was “attenuated effect”, the “reduction of BFP editing” value ([2]; 50 pmol dose) was 10% and the “reduction of BFP editing” value ([2]; 250 pmol dose) was 32%.
With “KKK-CCACCATTAGGCAAACATCC-KKK (all peptide nucleic acid (PNA), 5' {Lys}-{Lys}-{Lys}, 3' {Lys}-{Lys}-{Lys}) [POU5F1 CRISPRa PNA]” the “duration of the full effect” value (dCas9-VPR / POU5F1 sgRNA) was 2 to 3 days, the “effect on CRISPRa upregulated POU5F1 expression” value (dCas9-VPR / POU5F1 sgRNA) was “down to the level of the parental K562 line” and the “time after treatment at which the effect appears to dissipate” value (dCas9-VPR / POU5F1 sgRNA) was “approximately 5 days”. For the same substance, the “time by which POU5F1 expression dropped to the level of the parent line expression” value (dCas9-VPR / POU5F1 sgRNA) was ≤ 48 h and the “time by which expression began to return to its upregulated baseline” value (dCas9-VPR / POU5F1 sgRNA) was ≤ 120 h.
In the case of “KKK-GGGTTAAGGCAATAGCAATA-KKK [GFP Non-Targeting PNA]”, the “inhibitory effect” value ([2]; listed as heterologous GFP PNA) is reported as “no effect” and the “inhibitory effect” value ([2]; listed as non-targeting (GFP) PNA) is reported as “entirely ineffective”.
